Assays:
[1] = biological target: T1, human Adenosine A1 receptor (Homo sapiens, UniProt P30542); test: GTPγS scintillation proximity assay, agonist testing; type: biochemical; conditions: agonist activity; membrane extracts of CHO-K1 cells expressing recombinant human A1; read-out: A1AR EC50
T1 construct: host or cells: CHO-K1
T1 sequence (P30542 1-326): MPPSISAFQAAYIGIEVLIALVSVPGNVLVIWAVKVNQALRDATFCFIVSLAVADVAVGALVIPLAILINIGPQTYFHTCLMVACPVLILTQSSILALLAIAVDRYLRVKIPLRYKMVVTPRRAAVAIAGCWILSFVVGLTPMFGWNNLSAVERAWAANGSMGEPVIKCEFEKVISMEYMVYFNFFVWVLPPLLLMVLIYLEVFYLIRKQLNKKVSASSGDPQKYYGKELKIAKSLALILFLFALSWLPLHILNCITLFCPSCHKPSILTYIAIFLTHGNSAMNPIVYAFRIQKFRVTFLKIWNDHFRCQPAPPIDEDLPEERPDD
Protocol: (§1) SPA ^35S-GTPγS experiments were conducted with Epics Therapeutics membrane preparations. cAMP HTRF assays were conducted with recombinant cell lines.
• Assay buffer: 20 mM HEPES pH 7.4; 100 mM NaCl, 10 μg/mL saponin, MgCl2 at optimized concentration for the specific receptor. • Membranes: membrane extracts prepared from CHO-K1 cells expressing recombinant human Adenosine A1 receptor, thawed on ice, diluted in assay buffer and kept on ice. • GDP: diluted in assay buffer at the optimized concentration for the specific receptor Beads: PVT-WGA (Perkin Elmer, RPNQ001), diluted in assay buffer at 50 mg/mL (0.5 mg/10 μL) • GTPγ^35S: (Perkin Elmer, NEG030X), diluted in assay buffer for a final 0.1 nM assay concentration
Protocol for agonist testing: membranes are mixed with GDP (volume:volume). In parallel, GTPγ[^35S] is mixed with the beads (volume:volume) just before starting the reaction. The following reagents are successively added in the wells of an Optiplate (Perkin Elmer): 50 μL of test or reference ligand, 25 μL of the membranes:GDP mix, and 25 μL of the GTPγ[^35S]:beads mix. The plates are covered with a top seal, mixed on an orbital shaker for 2 min, and then incubated for 1 hour at room temperature. Then the plates are centrifuged for 10 min at 2000 rpm, incubated at room temperature and counted for 30 sec/well with a PerkinElmer TopCount™ reader. • Conditions for the GTPγS scintillation proximity assay are shown in Table 14.

human A2B = biological target: T2, human A2B (Homo sapiens, UniProt P29275); test: cAMP HTRF assay for Gs coupled receptor, agonist test; type: cell-based; conditions: agonist activity; HEK293 cells expressing recombinant human A2B; read-out: A2BAR EC50
T2 construct: expressed in transfected cells; host or cells: HEK293
T2 sequence (P29275 1-332): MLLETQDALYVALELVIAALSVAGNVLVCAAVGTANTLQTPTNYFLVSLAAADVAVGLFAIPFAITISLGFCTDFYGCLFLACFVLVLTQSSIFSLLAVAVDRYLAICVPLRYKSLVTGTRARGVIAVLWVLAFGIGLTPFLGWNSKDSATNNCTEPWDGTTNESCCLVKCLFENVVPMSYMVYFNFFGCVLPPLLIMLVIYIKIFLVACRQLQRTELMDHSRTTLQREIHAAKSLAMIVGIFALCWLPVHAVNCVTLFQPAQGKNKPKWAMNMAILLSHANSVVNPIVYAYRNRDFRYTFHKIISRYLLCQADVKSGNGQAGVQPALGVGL
Protocol: as §1
Dose response curves are performed in parallel with the reference compounds.
For agonist test (96 well): 12 μL of cells are mixed with 12 μL of the test compound at increasing concentrations and then incubated 30 min at room temperature. After addition of the lysis buffer containing cAMP-d2 and anti-cAMP cryptate detection reagents, plates are incubated 1 hour incubation at room temperature, and fluorescence ratios are measured according to the manufacturer specification, with the HTRF kit.

EC50 [1] | EC50 (human A2B) | SMILES
827 nM | > 10000 nM | COc1nc(SCC2COC2)c(C#N)c(-c2ccc(OCCO)cc2)c1C#N [Compound 281]
> 10000 nM | > 10000 nM | COCCOc1ccc(-c2c(C#N)c(SCc3cncnc3)nc(N3CC(F)C3)c2C#N)cc1 [Compound 249]
> 10000 nM | > 10000 nM | N#Cc1c(N)nc(SCC2CCOC2)c(C#N)c1-c1ccc(OC2CCCOC2)cc1 (stereo not shown) [Compound 326]
> 10000 nM | > 10000 nM | N#Cc1c(SCc2cccnc2)nc(N2CCCC2)c(C#N)c1-c1ccc(OCCOC(F)F)cc1 [Compound 257]
1.16 nM | 56.7 nM | N#Cc1c(SCc2cccnc2)nc(N2CC(O)C2)c(C#N)c1-c1ccc(OC2COC2)cc1 [Compound 268]
353 nM | > 10000 nM | COCC(F)(F)Oc1ccc(-c2c(C#N)c(N)nc(SCc3cccnc3)c2C#N)cc1 [Compound 306]
326 nM | > 10000 nM | N#Cc1c(N)nc(SCC2(F)COC2)c(C#N)c1-c1ccc(OC2COC2)cc1 [Compound 227]
1.5 nM | 401 nM | N#Cc1c(N)nc(SCC2COC2)c(C#N)c1-c1ccc(OCCO)cc1 [Compound 223]
55 nM | > 10000 nM | N#Cc1c(N)nc(SCC2(O)COC2)c(C#N)c1-c1ccc(OCCO)cc1 [Compound 313]
353 nM | > 10000 nM | N#Cc1c(N)nc(SCC2CCOC2)c(C#N)c1-c1ccc(OC2CCOC2)cc1 (stereo not shown) [Compound 218]
13.9 nM | > 10000 nM | COCCOc1ccc(-c2c(C#N)c(SCc3cccnc3)nc(N3CC(O)C3)c2C#N)cc1 [Compound 278]
22 nM | 311 nM | N#Cc1c(SCc2cccnc2)nc(N2CC(F)(F)C2)c(C#N)c1-c1ccc(OC2COC2)cc1 [Compound 272]
3.38 nM | 33.7 nM | CNc1nc(SCc2cccnc2)c(C#N)c(-c2ccc(OC(F)(F)CO)cc2)c1C#N [Compound 260]
> 10000 nM | > 10000 nM | COCCOc1ccc(-c2c(C#N)c(SCc3cnccn3)nc(N3CC(F)C3)c2C#N)cc1 [Compound 252]
25.2 nM | > 10000 nM | COc1nc(SCC2COC2)c(C#N)c(-c2ccc(OC3COC3)cc2)c1C#N [Compound 294, 2-Methoxy-6-((oxetan-3-ylmethyl)thio)-4-(4-(oxetan-3-yloxy)phenyl)pyridine-3,5-dicarbonitrile]
3280 nM | 1970 nM | N#Cc1c(N)nc(SCc2cnccn2)c(C#N)c1-c1ccc(OCCOC(F)F)cc1 [Compound 235]
78.5 nM | > 10000 nM | N#Cc1c(N)nc(SCC2COC2)c(C#N)c1-c1ccc(O[C@H]2C[C@H](O)C2)cc1 [Compound 303]
229 nM | > 10000 nM | N#Cc1c(N)nc(OCC2CCOCC2)c(C#N)c1-c1ccc(OC2COC2)cc1 [Compound 298]
33.2 nM | > 10000 nM | COCCOc1ccc(-c2c(C#N)c(SCc3ccccn3)nc(N3CC(F)C3)c2C#N)cc1 [Compound 250]
> 10000 nM | > 10000 nM | COCCOc1ccc(-c2c(C#N)c(N)nc(SCc3cccc4[nH]cnc34)c2C#N)cc1 [Compound 215]
1.51 nM | > 10000 nM | COCCOc1ccc(-c2c(C#N)c(N)nc(SCc3ccncn3)c2C#N)cc1 [Compound 232]
> 10000 nM | 6450 nM | COCCOc1ccc(-c2c(C#N)c(N)nc(S[C@H](C)c3ccccn3)c2C#N)cc1 [Compound 243]
> 10000 nM | > 10000 nM | CNc1nc(SCc2cccnc2)c(C#N)c(-c2ccc(OCCOC(F)F)cc2)c1C#N [Compound 258]
> 10000 nM | > 10000 nM | COCCOc1ccc(-c2c(C#N)c(N)nc(S[C@@H](C)c3ccccn3)c2C#N)cc1 [Compound 244]

More lines, now with the values behind:

SMILES | EC50 [1] | EC50 (human A2B)
N#Cc1c(N)nc(SC2CCOCC2)c(C#N)c1-c1ccc(OC2COC2)cc1 [Compound 31] | 596 nM | > 10000 nM
COCCOc1ccc(-c2c(C#N)c(N)nc(SCc3ccc4ccoc4c3)c2C#N)cc1 [Compound 213] | > 10000 nM | > 10000 nM
CCOCCSc1nc(N)c(C#N)c(-c2ccc(OCCOC)cc2)c1C#N [Compound 34] | 245 nM | > 10000 nM
N#Cc1c(SCc2cccnn2)nc(N2CCC2)c(C#N)c1-c1ccc(OCCO)cc1 [Compound 20] | 14.1 nM | 3 nM
COCCOc1ccc(-c2c(C#N)c(N)nc(CCc3cccnc3)c2C#N)cc1 [Compound 191] | 567 nM | > 10000 nM
CC(O)COc1ccc(-c2c(C#N)c(N)nc(SCc3cccnc3)c2C#N)cc1 (stereo not shown) [Compound 56, 2-Amino-4-[4-(2-hydroxy-propoxy)phenyl]-6-(3-pyridylmethylsulfanyl)pyridine-3,5-dicarbonitrile] | 8.6 nM | 0.08 nM
N#Cc1c(N)nc(SCc2cccnc2)c(C#N)c1-c1ccc(OCCO)cc1 [Compound 183] | 2 nM | 0.1 nM
CNC(=O)CSc1nc(N)c(C#N)c(-c2ccc(OCCO)cc2)c1C#N [Compound 139] | 87 nM | 4.5 nM
N#Cc1c(SCCC(F)(F)F)nc(N2CCCC2)c(C#N)c1-c1ccc(OCCO)cc1 [Compound 104] | 1790 nM | > 10000 nM
COCCOc1ccc(-c2c(C#N)cnc(SCCO)c2C#N)cc1 [Compound 94] | 1010 nM | > 10000 nM
COCCOc1ccc(-c2c(C#N)c(N)nc(SCc3ccnnc3)c2C#N)cc1 [Compound 194] | 71 nM | > 10000 nM
N#Cc1c(SCCC(N)=O)nc(N2CCCC2)c(C#N)c1-c1ccc(OCCO)cc1 [Compound 96] | > 10000 nM | 97 nM
COCCOc1ccc(-c2c(C#N)c(SCC3COC3)nc(N3CCC3)c2C#N)cc1 [Compound 62] | 350 nM | ≥ 10000 nM
COCCOc1ccc(-c2c(C#N)c(C)nc(SCCC(F)(F)F)c2C#N)cc1 [Compound 47] | > 10000 nM | 36.1 nM
COCCOc1ccc(-c2c(C#N)c(SCc3cccnc3)nc(N3CCCC3)c2C#N)cc1 [Compound 107] | 97 nM | > 10000 nM
COCCOc1ccc(-c2c(C#N)c(N)nc(SCC3COC3)c2C#N)cc1 [Compound 123] | 72 nM | > 10000 nM
COCCOc1ccc(-c2c(C#N)c(SCc3cccnn3)nc(N3CCC3)c2C#N)cc1 [Compound 12] | 483 nM | > 10000 nM
COCCOc1ccc(-c2c(C#N)c(N)nc(SCc3cccc(OC)c3)c2C#N)cc1 [Compound 37] | 139 nM | > 10000 nM
N#Cc1c(N)nc(SCCO)c(C#N)c1-c1ccc(OCCO)cc1 [Compound 177] | 57 nM | 18 nM
N#Cc1c(SCc2cnccn2)nc(N2CCC2)c(C#N)c1-c1ccc(OCCO)cc1 [Compound 6] | 586 nM | 213 nM
COCCOc1ccc(-c2c(C#N)c(SCc3cccnc3)nc(C3CC3)c2C#N)cc1 [Compound 46] | 110 nM | > 10000 nM
N#Cc1c(N)nc(SCC2CCO2)c(C#N)c1-c1ccc(OCCO)cc1 (stereo not shown) [Compound 110] | 253 nM | 177 nM
CC(O)CSc1nc(N2CCCC2)c(C#N)c(-c2ccc(OCCO)cc2)c1C#N (stereo not shown) [Compound 106] | 502 nM | > 10000 nM
N#Cc1cnc(SCC2COC2)c(C#N)c1-c1ccc(OCCO)cc1 [Compound 61, 4-[4-(2-hydroxyethoxy)phenyl]-2-(oxetan-3-ylmethythio)pyridine-3,5-dicarbonitrile] | 620 nM | > 10000 nM
CCOCCSc1nc(N)c(C#N)c(-c2ccc(OC3COC3)cc2)c1C#N [Compound 17] | 99.1 nM | 5950 nM
N#Cc1c(SCc2cccnc2)nc(N2CCC2)c(C#N)c1-c1ccc(OCCO)cc1 [Compound 116] | 2.9 nM | 3.9 nM
